Measured values taken from patent US8124744B2, “Macrolide derivatives” (Taisho Pharmaceutical Co., Ltd., priority 2006, dated 2012).
≈ marks a conversion by molar mass, not a printed value. Where two headings read alike, the source gives them in different places.

What was measured:
pro MMP-9 protein = assay: Inhibitory activity against proMMP-9 protein production (TNF α-stimulated mouse peritoneal exudate cells, ELISA); type: cell-based, C57BL/6J mice
Method: (§1) To 7- to 9-week male C57BL/6J mice (purchased from CLEA Japan, Inc. or Japan SLC, Inc.), Zymosan A (SIGMA) derived from budding yeasts which is adjusted to be 1 mg/ml in a phosphate buffer solution (PBS, 10010-49, Invitrogen) was administered intraperitoneally at 1 ml per mouse to induce peritonitis. Three days later, filter-sterilized cell recovery buffer (2 mM EDTA, 0.5% bovine serum albumin, PBS, pH 7.4) was administered intraperitoneally at 5 ml per mouse to recover peritoneal exudata cells. The cells went through a cell strainer (70 μm nylon, FALCON) and were then washed twice with a Hanks solution (Invitrogen). The cells were suspended in 10% fetal calf serum-containing Dulbecco's modified Eagle's culture medium (Invitrogen). The suspension was seeded on a plate with 48 wells, after 6 hours, the culture medium was completely exchanged. After culturing for another 18 hours, test compounds were added at 0.02 to 20 μM of the final concentration. After 1 hour from the addition of the compounds, a tumor necrosis factor (TNF) α (R & D Systems) was added at 25 ng/ml of the final concentration, and 24 hours later, the culture supernatant was collected. The amount of pro MMP-9 protein in the supernatant was quantified by an enzyme-linked immunosorbent assay (ELISA) (R & D Systems), IC50 values of the test compounds on the increased amount by TNF α stimuli, were calculated by ORIGIN analysis software (trade name: OriginLab). In addition, minimal inhibitory concentration (MIC) of each test compounds (measured bacterium: Staphylococcus aureus ATCC29213) was measured. As a comparative agent […] A (clarithromycin) was used.

[1] = test system: Staphylococcus aureus ATCC29213; assay: Minimal inhibitory concentration (MIC); type: cell-based
Method: as §1

[2] = relative activity when the value of Comparative Agent 1 (IC50 = 10.04 ± 4.11 μM) is 10, on the increase of pro MMP-9 by TNF α 25 ng/ml, 24 hours, read-out: IC50 (μM)*

Compound	IC50 (pro MMP-9 protein; [2]) [µM]	MIC [1] [µg/mL]	IC50 (pro MMP-9 protein; actual value of Comparative Agent 1 (table footnote), not normalised, read-out: IC50) [µM]
CC[C@H]1OC(=O)[C@H](C)[C@@H](O[C@H]2C[C@@](C)(OC)[C@@H](O)[C@H](C)O2)[C@H](C)[C@@H](O[C@@H]2O[C@H](C)C[C@H](N(C)C)[C@H]2O)[C@](C)(OC)C[C@@H](C)C(=O)[C@H](C)[C@@H](O)[C@]1(C)O [Comparative Agent 1, 6-O-methylerythromycin A, reference compound]	10	0.25 (≈ 0.334 µM)	10
CC[C@H]1OC(=O)[C@H](C)[C@@H](O[C@H]2C[C@@](C)(OC)[C@@H](OC(C)=O)[C@H](C)O2)[C@H](C)[C@@H](O[C@@H]2O[C@H](C)C[C@H](N(C)C)[C@H]2OC)[C@@](C)(OC)C[C@@H](C)[C@H](OC(=O)CCN(C)C)[C@H](C)[C@@H](O)[C@]1(C)O [Compound V of Example 147, 4″-O-acetyl-9-deoxo-9-(S)-(3-dimethylaminopropionyloxy)-6,2′-di-O-methylerythromycin A]	2.61	> 128	–
CC[C@H]1OC(=O)[C@H](C)[C@@H](O[C@H]2C[C@@](C)(OC)[C@@H](OC(C)=O)[C@H](C)O2)[C@H](C)[C@@H](O[C@@H]2O[C@H](C)C[C@H](N(C)C)[C@H]2OC)[C@@](C)(OC)C[C@@H](C)[C@H](OC(=O)CCN(C)C)[C@H](C)[C@@H](OC(=O)CCN(C)C)[C@]1(C)O [Compound W of Example 147, 4″-O-acetyl-9-deoxo-9-(S)-(3-dimethylaminopropionyloxy)-11-O-(3-dimethylaminopropionyl)-6,2′-di-O-methylerythromycin A]	6.56	> 128	–
CC[C@H]1OC(=O)[C@H](C)[C@@H](O[C@H]2C[C@@](C)(OC)[C@@H](OC(C)=O)[C@H](C)O2)[C@H](C)[C@@H](O[C@@H]2O[C@H](C)C[C@@H](N3CC[C@H](O)C3)[C@@H]2N(C)C)[C@@](C)(OC)C[C@@H](C)C(=O)[C@H](C)[C@@H](O)[C@]1(C)O [Compound X of Example 200, 4″-O-acetyl-3′-dedimethylamino-2′-deoxy-2′-dimethylamino-3′-((S)-3-hydroxypyrrolidin-1-yl)-6-O-methylerythromycin A]	2.03	> 128	–
CC[C@H]1OC(=O)[C@H](C)[C@@H](O[C@H]2C[C@@](C)(OC)[C@@H](OC(C)=O)[C@H](C)O2)[C@H](C)[C@@H](O[C@@H]2O[C@H](C)C[C@@H](N3CC[C@@H](O)C3)[C@@H]2N(C)C)[C@@](C)(OC)C[C@@H](C)C(=O)[C@H](C)[C@@H](O)[C@]1(C)O [Compound Y of Example 200, 4″-O-acetyl-3′-dedimethylamino-2′-deoxy-2′-dimethylamino-3′-((R)-3-hydroxypyrrolidin-1-yl)-6-O-methylerythromycin A]	3.02	> 128	–
CC[C@H]1OC(=O)[C@H](C)[C@@H](O[C@H]2C[C@@](C)(OC)[C@@H](O)[C@H](C)O2)[C@H](C)[C@@H](O[C@@H]2O[C@H](C)C[C@H](N(C)C)[C@H]2OCCCc2ccccc2)[C@@](C)(OC)C[C@@H](C)C(=O)[C@H](C)[C@@H](O)[C@]1(C)O [Example 24, 2′-O-(3-phenylpropyl)-6-O-methylerythromycin A]	0.38	> 64	–
CC[C@H]1OC(=O)[C@H](C)[C@@H](O[C@H]2C[C@@](C)(OC)[C@@H](O)[C@H](C)O2)[C@H](C)[C@@H](O[C@@H]2O[C@H](C)C[C@H](N(C)C)[C@H]2OC)[C@@](C)(OC)C[C@@H](C)C(=O)[C@H](C)[C@@H](O)[C@]1(C)O [Example 31, 6,2′-di-O-methylerythromycin A]	4.08	> 128	–
CC[C@H]1OC(=O)[C@H](C)[C@@H](O)[C@H](C)[C@@H](O[C@@H]2O[C@H](C)C[C@H](N(C)Cc3cccc(OC)c3)[C@H]2O)[C@@](C)(OC)C[C@@H](C)C(=O)[C@H](C)[C@H]2NC(=O)O[C@@]21C [Example 65, 11-amino-11-deoxy-5-O-(3′-N-demethyl-3′-N-(3-methoxybenzyl)desosaminyl)-6-O-methylerythronolide A 11,12-cyclic carbamate]	1.37	–	–
CC[C@H]1OC(=O)[C@H](C)[C@@H](O[C@H]2C[C@@](C)(OC)[C@@H](O)[C@H](C)O2)[C@H](C)[C@@H](O[C@@H]2O[C@H](C)C[C@@H](N3CCN(C)CC3)[C@@H]2N(C)C)[C@@](C)(OC)C[C@@H](C)C(=O)[C@H](C)[C@H]2NC(=O)O[C@@]21C [Example 89, 11-amino-3′-dedimethylamino-11,2′-dideoxy-2′-dimethylamino-3′-(4-methylpiperazin-1-yl)-6-O-methylerythromycin A 11,12-cyclic carbamate]	1.59	> 128	–
CC[C@H]1OC(=O)[C@H](C)[C@@H](O[C@H]2C[C@@](C)(OC)[C@@H](O)[C@H](C)O2)[C@H](C)[C@@H](O[C@@H]2O[C@H](C)C[C@@H](N3CCCCC3)[C@@H]2N(C)C)[C@@](C)(OC)C[C@@H](C)C(=O)[C@H](C)[C@@H](O)[C@]1(C)O [Example 101, 3′-dedimethylamino-2′-deoxy-2′-dimethylamino-3′-(1-piperidino)-6-O-methylerythromycin A]	0.62	> 128	–
CC[C@H]1OC(=O)[C@H](C)[C@@H](O[C@H]2C[C@@](C)(OC)[C@@H](O)[C@H](C)O2)[C@H](C)[C@@H](O[C@@H]2O[C@H](C)C[C@H](N(C)C)[C@H]2OCCCN(C)C)[C@@](C)(OC)C[C@@H](C)C(=O)[C@H](C)[C@@H](O)[C@]1(C)O [Example 115, 2′-O-(3-dimethylaminopropyl)-6-O-methylerythromycin A]	3.88	> 128	–
CC[C@H]1OC(=O)[C@H](C)[C@@H](O[C@H]2C[C@@](C)(OC)[C@@H](OC(C)=O)[C@H](C)O2)[C@H](C)[C@@H](O[C@@H]2O[C@H](C)C[C@H](N(C)C)[C@H]2OCCCN(C)C)[C@@](C)(OC)C[C@@H](C)C(=O)[C@H](C)[C@@H](O)[C@]1(C)O [Example 116, 4″-O-acetyl-2′-O-(3-dimethylaminopropyl)-6-O-methylerythromycin A]	2.79	> 128	–

Further molecules by falling IC50 (pro MMP-9 protein; [2]), results first:

IC50 (pro MMP-9 protein; [2]) [µM]	MIC [1] [µg/mL]	Compound	IC50 (pro MMP-9 protein; actual value of Comparative Agent 1 (table footnote), not normalised, read-out: IC50) [µM]
8.88	> 128	CC[C@H]1OC(=O)[C@H](C)[C@@H](O[C@H]2C[C@@](C)(OC)[C@@H](O)[C@H](C)O2)[C@H](C)[C@@H](O[C@@H]2O[C@H](C)C[C@H](N(C)C)[C@H]2OC)[C@@](C)(OC)C[C@@H](C)[C@H](N)[C@H](C)[C@@H](O)[C@]1(C)O [Compound T of Example 142, 9-deoxo-9-(S)-amino-6,2′-di-O-methylerythromycin A]	–
5	> 128	CC[C@H]1OC(=O)[C@H](C)[C@@H](O[C@H]2C[C@@H](C)[C@H](O)[C@](C)(OC)O2)[C@H](C)[C@@H](O[C@@H]2O[C@H](C)C[C@H](N(C)CCN(C)C)[C@H]2OC)[C@@](C)(OC)C[C@@H](C)C(=O)[C@H](C)[C@@H](O)[C@]1(C)O [Example 104, 3′-N-demethyl-3′-N-(2-dimethylaminoethyl)-6,2′-di-O-methylerythromycin A]	–
4.38	> 128	CCO[C@H]1[C@H](O[C@@H]2[C@@H](C)[C@H](O[C@@H]3C[C@@](C)(OC)[C@@H](O)[C@H](C)O3)[C@@H](C)C(=O)O[C@H](CC)[C@@](C)(O)[C@H](O)[C@@H](C)C(=O)[C@H](C)C[C@]2(C)OC)O[C@H](C)C[C@@H]1N(C)C [Example 105, 2′-O-ethyl-6-O-methylerythromycin A]	–
4.36	> 128	CC[C@H]1OC(=O)[C@H](C)[C@@H](O[C@H]2C[C@@](C)(OC)[C@@H](OC(C)=O)[C@H](C)O2)[C@H](C)[C@@H](O[C@@H]2O[C@H](C)C[C@@H](N3CCOCC3)[C@@H]2N(C)C)[C@@](C)(OC)C[C@@H](C)C(=O)[C@H](C)[C@H]2NC(=O)O[C@@]21C [Example 95, 4″-O-acetyl-11-amino-3′-dedimethylamino-11,2′-dideoxy-2′-dimethylamino-3′-(4-morpholino)-6-O-methylerythromycin A 11,12-cyclic carbamate]	–
2.51	> 128	CC[C@H]1OC(=O)[C@H](C)[C@@H](O[C@H]2C[C@@](C)(OC)[C@@H](OC(C)=O)[C@H](C)O2)[C@H](C)[C@@H](O[C@@H]2O[C@H](C)C[C@@H](N3CCCC(O)C3)[C@@H]2N(C)C)[C@@](C)(OC)C[C@@H](C)C(=O)[C@H](C)[C@@H](O)[C@]1(C)O (mixture of isomers) [Example 196, 4″-O-acetyl-3′-dedimethylamino-2′-deoxy-2′-dimethylamino-3-((±)-3-hydroxypiperidin-1-yl)-6-O-methylerythromycin A]	–
0.83	> 128	CC[C@H]1OC(=O)[C@H](C)[C@@H](O)[C@H](C)[C@@H](O[C@@H]2O[C@H](C)C[C@H](N(C)Cc3ccccc3)[C@H]2O)[C@@](C)(O)C[C@@H](C)CN(C)[C@H](C)[C@@H](O)[C@]1(C)O [Example 20, 5-O-(3′-N-demethyl-3′-N-benzyl)desosaminyl-9-deoxo-9a-aza-9a-methyl-9a-homoerythronolide A]	–
